In patent US20060018872A1, “Poly(lactic acid) copolymer hydrogels and related methods of drug delivery” (priority 2004, published 2006):
Values after ≈ are worked out from the molar mass of the structure shown. Counter-ions that a name gives are not always drawn. Values belong to the molecule of their own block, whether it stands above or below them.

Legend:
[1] = cited from earlier work
[2] = Release kinetics of pharmaceuticals from PLA-PEO-PLA gels at 25° C.; assay type: physicochemical; details: both polymers (1L and 2D/L), FIG. 7A
physchem = assay: physchem
From the text: The use of thermo-reversible triblock gels (Pluronics) as delivery agents for anti-inflammatories (naproxen and indomethacin), local anesthetics, and anti-cancer agents has been studied (Sharma, P. K. and Bhatia, S. R. Effect of Anti-Inflammatories on Pluronic® F127: Micellar Assembly, Gelation and Partitioning. Int J Pharmaceutics, in press, 2004). An ultraviolet spectroscopy technique has been developed to measure rapidly the solubility and micelle-water partition coefficients of hydrophobic pharmaceuticals in micellar gels and has been applied to PLA-PEO-PLA hydrogels. In addition to evaluating partitioning, release kinetics in PLA-PEO-PLA systems have also been studied.

Structure (SMILES): CCCCNc1ccc(C(=O)OCCN(C)C)cc1 [tetracaine hydrochloride]
- release behavior ([1]; from poly(DL-lactic-co-glycolic acid)): burst release

Structure (SMILES): CC1=C(CC(=O)O)c2cc(F)ccc2/C1=C\c1ccc([S+](C)[O-])cc1 (centres unmarked) [sulindac]
- time of complete release ([1]; from poly(styrene-divinylbenzene) microspheres): 24 h

Structure (SMILES): COC(=O)c1ccc(O)cc1 [methyl paraben]
- release of methyl paraben from PLA-PEO-PLA gels [2]: majority of the methyl paraben being quickly released within the first five hours

- micelle-water partition coefficient (physchem): 108±8
- solubility (physchem; water): 25 µg/mL (≈ 69.9 µM)
Structure (SMILES): COc1ccc2c(c1)c(CC(=O)O)c(C)n2C(=O)c1ccc(Cl)cc1 [Indomethacin, indomethacin]
